# Patent publication US20220175682A1, “Siremadlin Succinate” (Novartis AG, priority 2019, published 2022)
# What was measured:
# [1] = Particle size distribution by laser light diffraction (LLD); type: physicochemical
# Description: Values are given in micrometer, measurements done by laser light diffraction (LLD).
# [2] = Behaviour of co-crystal in aqueous media; type: physicochemical
compound,measurement,setting,value
"COc1ncc(-c2nc3c(n2C(C)C)[C@H](c2ccc(Cl)cc2)N(c2cc(Cl)cn(C)c2=O)C3=O)c(OC)n1 [HDM201-BBA, (6S)-5-(5-Chloro-1-methyl-2-oxo-1,2-dihydropyridin-3-yl)-6-(4-chlorophenyl)-2-(2,4-dimethoxypyrimidin-5-yl)-1-(propan-2-yl)-5,6-dihydropyrrolo[3,4-d]imidazol-4(1H)-one]",particle size range X90(LLD) found suitable for direct encapsulation,[1],10-200 micrometer
same,stability of co-crystal in aqueous media,[2],can disproportionate into the free form in aqueous media
